The record followed here is patent US10676446B2, “Bicyclic quinazolinone derivatives” (Hoffmann-La Roche Inc., priority 2015, dated 2020).

The assay deals with human ATX (autotaxin, ENPP2), His-tagged (Homo sapiens (Human), UniProt Q13822). Description: Human ATX enzyme inhibition assay (fluorescence quenching, MR121 substrate). The class given is biochemical. As to conditions: 30 nM ATX, 1 μM MR121 substrate, 30° C., pH 8.0. In a few lines: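 His-tagged human ATX (30 nM final) preincubated 15 min at 30 °C with serially diluted compound in Tris-HCl pH 8.0 buffer with Ca2+, Mg2+ and 0.01% Triton X-100. MR121-labelled fluorescence-quenched substrate then added (1 μM final) for a further 15 min at 30 °C; fluorescence read-out.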
On to `CN(Cc1ccc(Cl)c(C#N)c1)C(=O)Cn1cnc2ccc(N3CCN(CC4CCOC4)CC3)cc2c1=O` (stereo not drawn) [Example 115, N-[(4-Chloro-3-cyanophenyl)methyl]-N-methyl-2-[4-oxo-6-[4-(oxolan-3-ylmethyl)piperazin-1-yl]quinazolin-3-yl]acetamide], for which the IC50 (in general, the point on the concentration scale where inhibition reaches its midpoint) was 0.029 µM.
As for `COCC(=O)N1CCC(c2ccc3ncn(CC(=O)N(C)Cc4ccc(Cl)c(Cl)c4)c(=O)c3c2)CC1` [Example 171], the IC50 came to 0.003 µM.
With `CNC(=O)CCN(Cc1ccc(Cl)c(Cl)c1)C(=O)Cn1cnc2ccc(N3CCN(C(C)=O)CC3)cc2c1=O` [Example 55, 3-[[2-[6-(4-Acetylpiperazin-1-yl)-4-oxoquinazolin-3-yl]acetyl]-[(3,4-dichlorophenyl)methyl]amino]-N-methylpropanamide], the IC50 stood at 0.038 µM.
As to `O=C(Cn1cnc2ccc(N3CCN(C(=O)C(F)(F)F)CC3)cc2c1=O)NCc1ccc(Cl)c(Cl)c1` [Example 62], half-maximal inhibition (IC50) required 0.011 µM.
With `CC(=O)N1CCC(c2ccc3ncn(CC(=O)NCc4cc(Cl)cc(C(F)(F)F)c4)c(=O)c3c2)CC1` [Example 161, 2-[6-(1-Acetylpiperidin-4-yl)-4-oxoquinazolin-3-yl]-N-[[3-chloro-5-(trifluoromethyl)phenyl]methyl]acetamide] the figure was 0.028 µM; with `CN(Cc1ccc(Cl)c(Cl)c1)C(=O)Cn1cnc2ccc(N3CCN(CC4COC4)CC3)cc2c1=O` [Example 106], 0.132 µM.
Regarding `CN(Cc1ccc(C#N)c(Cl)c1)C(=O)Cn1cnc2ccc(C3CCN(C(=O)C4CCC4)CC3)cc2c1=O` [Example 137], the IC50 was 0.002 µM.
The result for `COc1cc(C#N)ccc1CNC(=O)Cn1cnc2ccc(N3CCN(C(C)=O)CC3)cc2c1=O` [Example 32] reads 0.089 µM; that for `COCCC(NC(=O)Cn1cnc2ccc(N3CCN(C(C)=O)CC3)cc2c1=O)c1ccc(Cl)c(Cl)c1` (stereo not drawn) [Example 153, 2-[6-(4-Acetylpiperazin-1-yl)-4-oxoquinazolin-3-yl]-N-[1-(3,4-dichlorophenyl)-3-methoxypropyl]acetamide], 0.036 µM.
The result for `O=C(Cn1cnc2ccc(N3CCN(C(=O)c4ccno4)CC3)cc2c1=O)NCc1ccc(Cl)c(Cl)c1` [Example 67] reads 0.015 µM; that for `CN(Cc1ccc(C#N)c(Cl)c1)C(=O)Cn1cnc2ccc(C3CCN(C(=O)C4COC4)CC3)cc2c1=O` [Example 142], 0.06 µM.
The result for `CC(=O)N1CC(C(=O)N2CCN(c3ccc4ncn(CC(=O)N(C)Cc5ccc(Cl)c(Cl)c5)c(=O)c4c3)CC2)C1` [Example 81] reads 0.073 µM; that for `CN(Cc1ccc(Cl)c(Cl)c1)C(=O)Cn1cnc2ccc(N3CCN(S(=O)(=O)C4CC4)CC3)cc2c1=O` [Example 91], 0.03 µM; that for `CC(=O)N1CCN(c2ccc3ncn(CC(=O)NCc4ccnc(Cl)c4)c(=O)c3c2)CC1` [Example 36], 0.346 µM.
Turning to `CC(=O)N1CCN(c2ccc3ncn(CC(=O)N(C)Cc4ccc(Cl)cc4)c(=O)c3c2)CC1` [Example 43], the IC50 came to 0.112 µM.
The result for `CC(C)NC(=O)CN1CCN(c2ccc3ncn(CC(=O)N(C)Cc4ccc(Cl)c(Cl)c4)c(=O)c3c2)CC1` [Example 109] reads 0.035 µM; that for `CC(=O)N1CCN(c2ccc3ncn(CC(=O)NCc4ccc(S(F)(F)(F)(F)F)cc4)c(=O)c3c2)CC1` [Example 39], 0.012 µM.
With `CN(C)C(=O)CN1CCN(c2ccc3ncn(CC(=O)N(C)Cc4ccc(Cl)c(Cl)c4)c(=O)c3c2)CC1` [Example 108] the figure was 0.055 µM; with `N#Cc1ccc(CNC(=O)Cn2cnc3ccc(N4CCN(C(=O)C5COC5)CC4)cc3c2=O)c(Cl)c1` [Example 113, N-[(2-Chloro-4-cyanophenyl)methyl]-2-[6-[4-(oxetane-3-carbonyl)piperazin-1-yl]-4-oxoquinazolin-3-yl]acetamide], 0.202 µM; with `O=C(Cn1cnc2ccc(N3CCN(C(=O)NC4CCCC4)CC3)cc2c1=O)NCc1ccc(Cl)c(Cl)c1` [Example 84], 0.002 µM.
For `CC(=O)N1CCC(c2ccc3ncn(CC(=O)N(C)Cc4ccc(C#N)c(F)c4)c(=O)c3c2)CC1` [Example 127], the IC50 was determined as 0.009 µM.
The result for `O=C(Cn1cnc2ccc(N3CCN(CC4CCOCC4)CC3)cc2c1=O)NCc1ccc(Cl)c(Cl)c1` [Example 98] reads 0.044 µM; that for `CN(Cc1ccc(Cl)c(C#N)c1)C(=O)Cn1cnc2ccc(C3CCN(CC4CCOC4)CC3)cc2c1=O` (stereo not drawn) [Example 144, N-[(4-Chloro-3-cyanophenyl)methyl]-N-methyl-2-[4-oxo-6-[1-(oxolan-3-ylmethyl)piperidin-4-yl]quinazolin-3-yl]acetamide], 0.086 µM; that for `CC(=O)N1CCN(c2ccc3ncn(CC(=O)NCc4ccc(C)c(Cl)c4)c(=O)c3c2)CC1` [Example 42], 0.14 µM.
The result for `CC(=O)N1CCN(c2ccc3ncn(CC(=O)NCc4ccc(OC(F)(F)F)cc4)c(=O)c3c2)CC1` [Example 20] reads 0.005 µM; that for `CNC(=O)C[C@@H](NC(=O)Cn1cnc2ccc(N3CCN(C(C)=O)CC3)cc2c1=O)c1ccc([N+](=O)[O-])cc1` [Example 9, (3R)-3-[[2-[6-(4-Acetylpiperazin-1-yl)-4-oxoquinazolin-3-yl]acetyl]amino]-N-methyl-3-(4-nitrophenyl)propanamide], 0.054 µM.
Consider `CC(=O)N1CCN(c2ccc3ncn(CC(=O)NCc4ccc5c(c4)OCO5)c(=O)c3c2)CC1` [Example 15], for which the IC50 amounted to 0.415 µM.
The result for `CC(=O)N1CCN(c2ccc3ncn(CC(=O)N4CCCC4c4ccc(Cl)cc4)c(=O)c3c2)CC1` (stereo not drawn) [Example 47] reads 0.341 µM; that for `CC(=O)N1CCN(c2ccc3ncn(CC(=O)NCc4ccc(Cl)cc4)c(=O)c3c2)CC1` [Example 10, 2-[6-(4-Acetylpiperazin-1-yl)-4-oxoquinazolin-3-yl]-N-[(4-chlorophenyl)methyl]acetamide], 0.096 µM.
In turn, `CCN(CC)C(=O)CN1CCN(c2ccc3ncn(CC(=O)N(C)Cc4ccc(Cl)c(Cl)c4)c(=O)c3c2)CC1` [Example 110] registered an IC50 of 0.034 µM.
With `CC(=O)N1CCN(c2ccc3ncn(CC(=O)NCc4ccc(S(C)(=O)=O)c(C)c4)c(=O)c3c2)CC1` [Example 40] the figure was 1.56 µM.
For the compound `COC(=O)CN1CCN(c2ccc3ncn(CC(=O)NCc4ccc(Cl)c(Cl)c4)c(=O)c3c2)CC1` [Example 93, Methyl 2-[4-[3-[2-[(3,4-dichlorophenyl)methylamino]-2-oxoethyl]-4-oxoquinazolin-6-yl]piperazin-1-yl]acetate], it took 0.029 µM to reach half-maximal inhibition (IC50).
The result for `CC(=O)N1CCN(c2ccc3ncn(CC(=O)N(C)Cc4cc(Cl)nc(Cl)c4)c(=O)c3c2)CC1` [Example 46] reads 0.184 µM.
With `CC(=O)N1CCN(c2ccc3ncn(CC(=O)NC(CC(=O)NCC(C)C)c4ccc(C(F)(F)F)cc4)c(=O)c3c2)CC1` (stereo not drawn) [Example 6] the figure was 0.979 µM; with `CC(=O)N1CCCN(c2ccc3ncn(CC(=O)N(C)Cc4ccc(Cl)c(C#N)c4)c(=O)c3c2)CC1` [Example 121], 0.02 µM.
With `CN(Cc1ccc(Cl)c(Cl)c1)C(=O)Cn1cnc2ccc(C3CCN(C(=O)C4(C)CCCO4)CC3)cc2c1=O` (stereo not drawn) [Example 181] the figure was 0.008 µM.
